Laboratory results taken from the NIST ThermoML archive (doi:10.1021/je200226z).
± gives the expanded uncertainty stated by the source.

Test: mn = molality of the nth substance listed, in mol/kg
Settings: 298.15 K, 101 kPa, Liquid, Westphal Balance

| mass density (m1 = 0.05) | mass density (m1 = 0.1) | mass density (m1 = 0.15) | mass density (m1 = 0.25) | mass density (m1 = 0.5) | mass density (m1 = 0.75) | mass density (m1 = 1) | mass density (m1 = 0.02) | mass density (m1 = 0.06) | mass density (m1 = 0.2) | Structure (SMILES) |
| --- | --- | --- | --- | --- | --- | --- | --- | --- | --- | --- |
| 998.1 ± 0.14 kg/m3 | 999 ± 0.14 kg/m3 | 999.8 ± 0.14 kg/m3 | 1001.3 ± 0.14 kg/m3 | 1004.8 ± 0.14 kg/m3 | 1007.8 ± 0.13 kg/m3 | 1010.3 ± 0.12 kg/m3 |  |  |  | C=CCn1cc[n+](C)c1.[Cl-] [1-allyl-3-methylimidazolium chloride] + O |
|  | 1009.9 ± 0.14 kg/m3 | 1016.06 ± 0.14 kg/m3 | 1027.95 ± 0.14 kg/m3 |  |  |  | 999.72 ± 0.14 kg/m3 | 1004.87 ± 0.14 kg/m3 | 1022.12 ± 0.14 kg/m3 | OC[C@H]1O[C@@](CO)(O[C@H]2O[C@H](CO)[C@@H](O)[C@H](O)[C@H]2O)[C@@H](O)[C@@H]1O [D-sucrose] + O |
